These results are taken from patent US12162836B2, “N-acyl-{4-[(4-aryl-phenyl)sulfonylmethyl]piperidine} compounds and their therapeutic use” (Modern Biosciences Limited, priority 2019, dated 2024).

Converted amounts (≈) assume the structure as drawn.

The test system of data set [1] is collagen-induced arthritis in DBA/1j mice. Put plainly: Mouse Collagen-Induced Arthritis. The data set is classed as in vivo. The following applies: 10 mg/kg/day, once daily for 14 days, oral gavage; arthritic index vs control. How it is done: Seven- to eight-week-old male DBA/1j mice were used for all procedures. Animals were housed in groups of 10, and were maintained at 21° C.±2° C. on a 12-hour light/dark cycle with food and water ad libitum. Complete Freund's adjuvant (CFA) was prepared by emulsifying bovine type II collagen at 4 mg/mL with a 4 mg/mL suspension of Mycobacterium tuberculosis H37Ra in Incomplete Freund's Adjuvant (IFA) (0.85 mL paraffin oil and 0.15 mL mannide monooleate) in a 1:1 (v/v) ratio. All mice were immunised subcutaneously with 200 μg of bovine type II collagen in CFA. 21 days later, all mice were immunised subcutaneously with 100 μg of bovine type II collagen in IFA. The mice started to develop signs and symptoms of arthritis following the ‘booster’ immunisation.
For macroscopic assessment of arthritis, the following signs were monitored in each paw of each mouse three times per week and summed to generate the Arthritic Index (A1) (the maximum A1 for one animal is 16): • 0=no visible effects of arthritis. • 1=oedema and/or erythema of 1 digit. • 2=oedema and/or erythema of 2 digits. • 3=oedema and/or erythema of more than 2 digits. • 4=severe arthritis of entire paw and digits.
Animals were sorted into treatment groups with a mean arthritic index of 2.5 and then dosed once daily for 14 days with compound: by oral gavage for test compounds, or by subcutaneous injection at a dose of 10 mg/kg for the positive control, etanercept. After completion of the experiment, the mice were sacrificed.
The data were analysed by generating an average of the arthritic index across each treatment group. The mean arthritic index was then compared to the arthritic index of control (untreated) animals using the following formula to generate a percentage inhibition of disease.

Data set [2] has as its target hERG ion channel (Homo sapiens (Human), UniProt Q12809). Nature of the data set: hERG Ion Channel binding assay (3H astemizole displacement). The procedure: (§1) The activity of the compounds against the hERG ion channel was tested using a binding assay in stably transfected Human Embryonic Kidney cells (hERG-HEK293). hERG-HEK293 cells were cultured in MEM medium (Invitrogen)+10% FBS, glutamine and non-essential amino acids at 37° C. To prepare membranes, cells were homogenised on ice, centrifuged at 650×g for 10 minutes at +4° C., and the resulting supernatant centrifuged at 48000×g for 10 minutes at +4° C. The pellet was resuspended in ice-cold 50 mM Tris-HCl buffer, 5 mM KCl (pH 8.5) and stored frozen in aliquots until use.
(§2) For binding assays, membranes were thawed, re-suspended in assay buffer (10 mM HEPES pH 7.4, 0.1% BSA, 5 mM potassium chloride, 0.8 mM magnesium chloride, 130 mM sodium chloride, 1 mM sodium-EGTA, 10 mM glucose) and incubated with ^3H astemizole (1.5 nM), and with or without test compound at 25° C. for 60 minutes. Binding was determined following filtration of the membranes and washing in Tris-HCl buffer by scintillation counting of ^3H astemizole.
(§3) The degree of binding of compounds to the hERG ion channel (%) was obtained by measuring the binding of ^3H astemizole and its displacement by test compound. A value of 0% indicates no binding and a value of 100% indicates complete displacement of the radiolabelled ligand.
(In general: Block of hERG is tested as a sign of cardiac risk.)

The target of data set [3] is hERG (Homo sapiens (Human), UniProt Q12809). The data set is described as above. The conditions noted are these: human, membranes of HEK293 cells stably expressing hERG, pH 7.4, probe 3H astemizole (1.5 nM); 30 μM; displacement of 3H astemizole, hERG-HEK293 membranes. How it is done:
as §1, §2, §3

A short description of data set [4]: Aqueous solubility in FaSSIF. The data set is classed as physicochemical. The conditions noted are these: for solubility at 16 h: kinetic from dmso stock, pH 6.5, 16 hours, room temperature. The procedure: Aqueous solubility was measured by equilibration of compounds with fasted state simulated intestinal fluid (FaSSIF) and quantified spectrophotometrically.
Preparation of blank FaSSIF: 0.21 g of sodium hydroxide (NaOH) pellets, 1.97 g of dihydrogen sodium phosphate (NaH2PO4.2H2O) and 3.09 g of sodium chloride (NaCl) were dissolved in 400 mL of deionised water. The pH was adjusted to 6.5 using 1 M hydrochloric acid and further deionised water added to a final volume of 500 mL.
Preparation of FaSSIF: 0.056 g of SIF Powder (containing sodium taurocholate and lecithin) (Pharses A G) was dissolved in 25 mL of blank FaSSIF and stirred until the powder was completely dissolved. The solution was allowed to stand for 2 hours during which it became opalescent; it was used within 24 hours. The final solution composition was characterised as follows: • Sodium taurocholate: 3 mM • Lecithin: 0.75 mM • Osmolarity: 270±10 mOsmol • pH: 6.5
The optical density was measured at the end of the incubation period for test compounds and a reference used to determine solubility. In brief, two samples were prepared for each determination: a reference sample consisting of a stock solution of test compound in DMSO diluted in system solution (a phosphate free, low absorption buffer) and propanol; and a test sample (prepared in triplicate) consisting of 0.5 mL FaSSIF spiked with test compound at 0.2 mM. Each sample was incubated at room temperature for 16 hours with constant shaking at 250 rpm. At the end of the incubation period, 0.3 mL of each sample was filtered through a pION filter plate (PION, Woburn MA), diluted 1:1 with propanol and scanned using UV spectrophotometry at Amax ([…]) using a Spectra Max Plus—Version 2.1000 (Molecular Devices, Sunnyvale, CA), with pSOL Explorer solubility determination software (pION, Woburn, MA).
FaSSIF solubility was calculated using the following formula:
[formula] • wherein: • “OD” is the optical density; • “Cr” is the concentration of the reference (33.4 μM); and • “molecular weight” is for the test compound (e.g., 381.44 for ABD735).

The nature of data set [5]: Human Hepatocyte Stability. The data set is classed as in vitro ADME. The conditions noted are these: pooled human hepatocytes, 1 μM, 60 minute incubation; for half-life at 1 μM: read-out: Human t1/2. The procedure: (§4) Metabolic stability of test compounds was measured by determination of the rate of disappearance of the compound when incubated in the presence of human hepatocytes, a primary source of the most important enzymes (cytochrome P450s) involved in drug metabolism. Study of drug stability in the presence of primary hepatocytes is accepted as a valuable model permitting rapid prediction of in vivo drug stability.
(§5) Human hepatocytes were obtained from a commercial source and viability was assessed using a trypan blue solution prior to use. Test compounds (final concentration 1 μM, 0.1 DMSO, 0.9% acetonitrile) or a marker (diclofenac or diltiazem, final assay concentration 1 μM, 0.1% DMSO, 0.9% acetonitrile) were incubated with pooled hepatocytes for a 60 minute period and samples removed at up to 6 time points and analysed by LC-MS/MS for the presence/amount of test compounds.
(§6) Each compound was incubated for 0, 5, 15, 30, 45, or 60 minutes. The reactions were stopped by the addition of methanol containing an internal standard (1 μM Tolbutamide) at the appropriate time points, mixed and placed at −20° C. for 1 hour to quench and allow protein to precipitate. All samples were centrifuged (2500× g, 20 minutes, 4° C.). The aliquots were analysed using LC-MS/MS. Reactions were performed in duplicate at 37° C.
(§7) Data were processed, and the results plotted as In(concentration) vs. time. The elimination rate constant (slope of the regression line, k) was calculated using the following formula, where C(t) is the concentration at time t and C(0) is the starting concentration:
(§8) The half-life (t1/2) was calculated using the following formula: […]
(§9) The intrinsic clearance (Clint) was calculated using the following formula, where [cell] is the hepatocyte concentration in the assay: […]

Data set [6] concerns human hepatocytes. Put plainly: Human Hepatocyte Stability. The class given is in vitro ADME. The conditions noted are these: human hepatocytes. The procedure: as §4, §5, §6, §7, §8, §9
The test system of data set [7] is Thp1 human monocytic cells. Put plainly: Thp1 Monocyte ATP Production Assay (ATPlite). The data set is classed as cell-based. The conditions noted are these: Homo sapiens, THP-1, Thp1 cells, 24 hour incubation, mean of 2 independent experiments. The procedure: In vitro potency of test compounds was determined by incubation with Thp1 human monocytic cells and subsequent determination of Adenosine TriPhosphate (ATP) levels using firefly luciferase.
ATP is present in all metabolically active cells. When cells lose integrity, their ability to synthesise ATP is rapidly lost. […] See, e.g., Kang et al., 2015; Jiang et al., 2013. Levels of ATP can be monitored using a system based on firefly (Photinus pyralis) luciferase (see, e.g., Auld et al., 2009) using commercially available kits. A system known as ATPlite™ was using to measure effects of the test compounds on cellular viability in vitro. This one-step assay system is an adenosine triphosphate (ATP) monitoring system based on the production of light caused by the reaction of ATP from the cells with added luciferase and D-luciferin, as illustrated in the reaction scheme below:
Thp1 cells were plated at 112500 cells per well in 125 μL RPMI-1640 (no glucose) with 1% FBS in 96-well plates. Test compounds were prepared as 100 mM solutions in DMSO. These stock solutions were diluted in DMSO and then diluted 1000× in culture medium (RPMI) before being added directly to the wells so as to give the desired final compound concentration. After a 24 hour incubation at 37° C./5% CO2, ATPLite™ (Perkin Elmer) was added to each well (1:10 v/v, 10 μL). The plate was then incubated at room temperature for 5 minutes and the emitted light was quantified on Viewlux with a measurement time of 0.3 seconds and binning 4×4.
The average results for each test compound were expressed as a percent (%) of the average control value reflecting cell viability. The average values across the concentrations tested were then plotted and the IC50 for was calculated by fitting the data to a 4-parameter IC50 equation using software from Graf it (Erithacus Software). Each experiment was repeated twice and the data are presented as the mean IC50 from both experiments.
Background: ATP-based viability assays read luminescence as a measure of living cells.

Sequence of hERG (Q12809 whole entry): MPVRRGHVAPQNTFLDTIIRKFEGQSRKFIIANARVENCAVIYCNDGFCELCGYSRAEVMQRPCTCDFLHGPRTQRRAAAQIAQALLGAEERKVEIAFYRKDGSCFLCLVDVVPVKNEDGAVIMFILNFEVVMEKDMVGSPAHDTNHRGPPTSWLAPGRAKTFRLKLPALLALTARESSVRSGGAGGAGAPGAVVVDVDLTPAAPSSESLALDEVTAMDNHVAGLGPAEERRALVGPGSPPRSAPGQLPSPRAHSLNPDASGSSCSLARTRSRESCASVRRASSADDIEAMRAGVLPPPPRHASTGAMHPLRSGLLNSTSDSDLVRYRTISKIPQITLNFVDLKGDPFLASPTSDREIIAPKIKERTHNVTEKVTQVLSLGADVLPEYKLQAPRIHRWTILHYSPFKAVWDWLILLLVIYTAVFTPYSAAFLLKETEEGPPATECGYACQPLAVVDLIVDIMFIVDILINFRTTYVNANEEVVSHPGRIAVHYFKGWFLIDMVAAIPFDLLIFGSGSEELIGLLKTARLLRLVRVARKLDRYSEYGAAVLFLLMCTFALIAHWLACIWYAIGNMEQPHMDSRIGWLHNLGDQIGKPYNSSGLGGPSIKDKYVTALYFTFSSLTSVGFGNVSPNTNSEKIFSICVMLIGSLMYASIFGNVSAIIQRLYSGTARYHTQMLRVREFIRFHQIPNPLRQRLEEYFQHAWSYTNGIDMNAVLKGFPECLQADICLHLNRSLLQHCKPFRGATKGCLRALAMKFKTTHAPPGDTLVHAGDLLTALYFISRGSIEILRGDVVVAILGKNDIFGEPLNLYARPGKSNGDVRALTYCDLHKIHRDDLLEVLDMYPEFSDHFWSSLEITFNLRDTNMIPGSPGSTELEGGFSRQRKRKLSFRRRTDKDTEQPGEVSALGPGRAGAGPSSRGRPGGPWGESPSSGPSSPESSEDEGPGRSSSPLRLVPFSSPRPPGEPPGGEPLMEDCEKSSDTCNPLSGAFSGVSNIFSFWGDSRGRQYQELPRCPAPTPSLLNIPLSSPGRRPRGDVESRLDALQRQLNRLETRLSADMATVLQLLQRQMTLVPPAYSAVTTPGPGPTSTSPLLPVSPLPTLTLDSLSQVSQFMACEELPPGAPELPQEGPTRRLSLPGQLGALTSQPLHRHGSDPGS
Sequence of hERG ion channel (Q12809 whole entry): as above

Consider `C[C@]1(O)CC[C@@H](NS(=O)(=O)c2ccc(-c3ccc(Cl)cc3C#N)cc2)CC1` [HMC-C-01-B], for which, in data set [1], the “% inhibition of disease” value is on record as 26%.

What is called inhibition is how much of the control response was suppressed. Read a low inhibition as a weak effect. Broadly, the solubility is the dissolved amount per volume that the medium holds. By hepatocyte CLint is commonly meant the rate of metabolic loss divided by the concentration. Read a high hepatocyte CLint as faster metabolism. In general, IC50 refers to the point on the concentration scale where inhibition reaches its midpoint. Read a low IC50 as inhibition by little substance. For `CC(=O)N1CCC(C(C)(C)S(=O)(=O)c2ccc(-c3ccc(F)cc3F)cc2)CC1` [NASMP-18, 1-(4-(2-((2′,4′-Difluoro-[1,1′-biphenyl]-4-yl)sulfonyl)propan-2-yl)piperidin-1-yl)ethan-1-one], the “cardiac safety profile, hERG (in words)” value in data set [2] is “particularly positive profile”. Besides, the inhibition at 60 min, 30 µM in data set [3] was 14%. Moreover, in data set [4], the solubility at 16 h amounted to 39 µg/mL (≈ 92.5 µM). Also, in data set [5], the hepatocyte CLint at 1 μM stood at 3.8 µL/min/1e6 cells and the half-life at 1 μM is 5.87 h. The “metabolic stability (in words)” value in data set [6] is “exceptionally good stability”. This compound yielded an IC50 in data set [7] (8-point concentration range from 100 μM to 100 nM) of 28.5 µM.

In the case of `CC(=O)N1CCC(C2(S(=O)(=O)c3ccc(-c4ccc(F)cc4F)cc3)CC2)CC1` [NASMP-21, 1-(4-(1-((2′,4′-Difluoro-[1,1′-biphenyl]-4-yl)sulfonyl)cyclopropyl)piperidin-1-yl)ethan-1-one], the “cardiac safety profile, hERG (in words)” value in data set [2] is given as “particularly positive profile”. Further, in data set [3], the inhibition at 60 min, 30 µM turned out to be 1%. In data set [4], the “solubility (in words)” value is recorded as “particularly good solubility” and the solubility at 16 h was determined as 71 µg/mL (≈ 169 µM). In data set [5], the hepatocyte CLint at 1 μM was 13.4 µL/min/1e6 cells and the half-life at 1 μM is 1.74 h. The compound further displayed an IC50 in data set [7] (9-point concentration range from 10 μM to 10 nM) of 6.1 µM.
